# Tested on: T3G1
# Experiment: Substrate conversion (oxyfunctionalization) by purified enzyme T3G1 with H2O2
# Type: biochemical, Proteobacteria bacterium
# Settings: 1 mM substrate, 2 mM H2O2 (1 mM at start, to 2 mM after 90 min), 7 μM enzyme T3G1 (5 + 2 μM)
# Source text: This prompted us to test the representative enzyme T3G1 against a large panel of various substrates.
row,Compound,% conversion
1,"CC(=O)CCC1C(C)=CCCC1(C)C (stereo not drawn) [7,8-dihydro-α-ionone]",50%
2,C/C=C/C(=O)C1C(C)C=CCC1(C)C (centres unmarked) [δ-damascone],16%
3,CC=Cc1ccccc1 [β-methyl-styrene],86%
4,C1=Cc2ccccc2C1 [indene],27%
5,CC(=O)/C=C/C1=C(C)CCCC1(C)C [trans-β-ionone],48%
6,"C=CCCCC [Substrate 1-hexene, 1-hexene]",trace
7,COc1cc(C)ccc1O [creosol],trace
8,C/C=C\C(=O)C1C(C)=CCCC1(C)C (stereo not drawn) [α-damascone],26%
9,C=C(C)CC [2-methyl-1-butene],trace
10,CCC/C=C/CCC [trans-4-octene],99%
11,C1=C\CCCCCC/1 [cis-cyclooctene],83%
12,C(=C\c1ccccc1)/c1ccccc1 [trans-stilbene],17%
13,"C=CC(=C)C [2-methyl-1,3-butadiene]",trace
14,CC12CCC(=O)C=C1CCCC2=O (centres unmarked) [Wieland-miescher ketone],10%
15,terpinene,73%
16,(−)-carveol,4%
17,CC/C=C/CCCC [trans-3-octene],99%
18,"CC(C)NCC(O)COc1cccc2ccccc12 (centres unmarked) [propanolol, reference compound]",5%
19,C/C=C/CCC [trans-2-hexene],trace

row,Compound,% conversion
1,C=Cc1ccccc1 [styrene],61%
2,C/C=C/CCCCC [trans-2-octene],99%
3,"C=C(C)C1CC=C(C)CC1 (single isomer, unassigned; (+)) [(+)-limonene]",81%
4,CC/C=C/CC [trans-3-hexene],40%
5,C/C=C\CCCC [cis-2-heptene],81%
6,CSc1ccccc1 [thioanisole],40%
7,CCc1ccccc1 [ethylbenzene],trace
8,C=C(C)[C@@H]1CCC2=CCC[C@@H](C)[C@]2(C)C1 [valencene],3%
9,"C=CCCCCCCC=C [1,9-decadiene]",15%
10,"C=CCCCCC [Substrate 1-heptene, 1-heptene]",trace
11,C[C@]12CCC(=O)C=C1CCC2=O [(S)-Hajos-Wiechert ketone],trace
12,CC1=CCCC(C)(C)C1/C=C/C(C)O (stereo not drawn) [α-ionol],61%
13,CC(=O)/C=C/C1C(C)=CCCC1(C)C (stereo not drawn) [α-ionone],61%
14,"C=CCCCCCCCC [Substrate 1-decene, 1-decene]",13%
15,CCCCCCCC/C=C\CCCCCCCC(=O)O [oleic acid],19%
16,C1=CCCCC1 [cyclohexene],32%
17,C/C=C\CCC [cis-2-hexene],trace
18,"C=CCCCCCC [Substrate 1-octene, 1-octene]",65%

# Same assay, conditions: 1 mM substrate, 2 mM H2O2, 7 μM T3G1
Compound,% ee (printed beside % conversion),"% cis (of product, printed beside % conversion)",% double epoxide [% double epoxide]
C=Cc1ccccc1 [styrene],(17% ee),,
"C=C(C)C1CC=C(C)CC1 (single isomer, unassigned; (+)) [(+)-limonene]",,(97.3% cis),
CSc1ccccc1 [thioanisole],(74% ee),,
"C=CCCCCCCC=C [1,9-decadiene]",,,13
